Measurements published in ChEMBL document CHEMBL1201862, “PubChem BioAssay data set” (2004).
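The compound was tested at five concentrations on cells cultured in 96-well plates, with a 48-hour exposure period. GI50 marks 50% less growth.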 Activity calls are given as the source filed them. Cut-off read from the data, not from the text of the source: active = GI50 up to about 1.1 µM and inactive = higher. Where a SMILES comes first, the peptide text is derived from it. The star is where a group is joined. Cbz = O=C(OCc1ccccc1)*; OBn = c1ccc(CO*)cc1

Assays:
Assay in all cases: inhibition of tumour cell growth, NCI panel, 48 h
SF-295 = system: SF-295
RXF 393 = system: RXF 393
CCRF-CEM = system: CCRF-CEM
UACC-257 = system: UACC-257
UO-31 = system: UO-31
HOP-62 = system: HOP-62
T47D = system: T47D
DU-145 = system: DU-145
ACHN = system: ACHN
SF-539 = system: SF-539
OVCAR-5 = system: OVCAR-5
SN12C = system: SN12C
LOX IMVI = system: LOX IMVI
NCI-H226 = system: NCI-H226
A549 = system: A549
MDA-MB-231 = system: MDA-MB-231
SK-MEL-28 = system: SK-MEL-28
M14 = system: M14
OVCAR-3 = system: OVCAR-3
MCF7 = system: MCF7

Compound	GI50 (SF-295)	GI50 (RXF 393)	GI50 (CCRF-CEM)	GI50 (UACC-257)	GI50 (UO-31)	GI50 (HOP-62)	GI50 (T47D)	GI50 (DU-145)	GI50 (ACHN)	GI50 (SF-539)	GI50 (OVCAR-5)	GI50 (SN12C)	GI50 (LOX IMVI)	GI50 (NCI-H226)	GI50 (A549)	GI50 (MDA-MB-231)	GI50 (SK-MEL-28)	GI50 (M14)	GI50 (OVCAR-3)	GI50 (MCF7)
O=[N+]([O-])c1ccc2oc(=N/c3ccccc3)/c(=N\c3ccccc3)[nH]c2c1	47.9 µM (inactive)	24.9 µM (inactive)	> 100 µM (inactive)	> 100 µM (inactive)	77.1 µM (inactive)	35 µM (inactive)	> 100 µM (inactive)	> 100 µM (inactive)	24.7 µM (inactive)	39.7 µM (inactive)	> 100 µM (inactive)	46.5 µM (inactive)	88.1 µM (inactive)	> 100 µM (inactive)	59.8 µM (inactive)	7.87 µM (inactive)	> 100 µM (inactive)			
Cc1nc2c(o1)C(=O)c1ccccc1/C2=N/C1CCCCC1N (stereo unspecified)			0.247 µM (active)	0.144 µM (active)	1.64 µM (inactive)	0.982 µM (active)	0.345 µM (active)	1.48 µM (inactive)	0.649 µM (active)	0.32 µM (active)	1.75 µM (inactive)	0.386 µM (active)	0.16 µM (active)	1.97 µM (inactive)	1.46 µM (inactive)	0.373 µM (active)	0.166 µM (active)	0.425 µM (active)	0.249 µM (active)	0.265 µM (active)
COc1c(Sc2c(SCSc3cnc4ccccc4c3Sc3cnc4ccccc4c3OC)cnc3ccccc23)cnc2ccccc12	> 100 µM (inactive)		> 100 µM (inactive)	> 100 µM (inactive)	24.7 µM (inactive)	42.9 µM (inactive)	> 100 µM (inactive)	> 100 µM (inactive)	82.6 µM (inactive)	> 100 µM (inactive)	> 100 µM (inactive)	> 100 µM (inactive)	> 100 µM (inactive)		> 100 µM (inactive)	29 µM (inactive)	29 µM (inactive)	> 100 µM (inactive)	> 100 µM (inactive)	
CNC(=O)C1(C#N)C(c2ccccc2)C(C#N)(C(=O)NC)C1c1ccccc1 (stereo unspecified)	> 100 µM (inactive)		> 100 µM (inactive)		> 100 µM (inactive)	> 100 µM (inactive)	> 100 µM (inactive)		> 100 µM (inactive)	> 100 µM (inactive)	> 100 µM (inactive)	> 100 µM (inactive)	> 100 µM (inactive)	98.9 µM (inactive)	> 100 µM (inactive)		> 100 µM (inactive)	> 100 µM (inactive)	> 100 µM (inactive)	> 100 µM (inactive)
COC(=O)C(Cc1ccc(O)cc1)NC(=O)C(CC(=O)OCc1ccccc1)NC(=O)OCc1ccccc1 (stereo unspecified) (Cbz-Asp(OBn)-Tyr-OMe; configuration not given here)		14 µM (inactive)	53.2 µM (inactive)	21.2 µM (inactive)	22.9 µM (inactive)	19.7 µM (inactive)	19.5 µM (inactive)		20.1 µM (inactive)		22.7 µM (inactive)	21 µM (inactive)		21.4 µM (inactive)	20.7 µM (inactive)	18.7 µM (inactive)	17.1 µM (inactive)	22.2 µM (inactive)		> 10 µM (inactive)
Nc1nc2cc3nc(N)c(N)nc3cc2nc1N	> 100 µM (inactive)	> 100 µM (inactive)	64.3 µM (inactive)	> 100 µM (inactive)	> 100 µM (inactive)			> 100 µM (inactive)	> 100 µM (inactive)	> 100 µM (inactive)	> 100 µM (inactive)	> 100 µM (inactive)	> 100 µM (inactive)	> 100 µM (inactive)	> 100 µM (inactive)	> 100 µM (inactive)	> 100 µM (inactive)	> 100 µM (inactive)	> 100 µM (inactive)	> 100 µM (inactive)
COc1ccc(CNC(=O)[C@H](Cc2ccc(O)cn2)NC(C)=O)cc1	> 100 µM (inactive)	> 100 µM (inactive)	> 100 µM (inactive)	> 100 µM (inactive)	> 100 µM (inactive)	> 100 µM (inactive)	> 100 µM (inactive)	> 100 µM (inactive)	> 100 µM (inactive)	> 100 µM (inactive)	> 100 µM (inactive)	> 100 µM (inactive)	> 100 µM (inactive)	> 100 µM (inactive)	> 100 µM (inactive)		> 100 µM (inactive)	> 100 µM (inactive)	> 100 µM (inactive)	> 100 µM (inactive)
CCO/C=N\c1c(C#N)c(-c2ccc(Cl)cc2)cn1-c1ccc(C)cc1	> 100 µM (inactive)	> 100 µM (inactive)	> 100 µM (inactive)	> 100 µM (inactive)	> 100 µM (inactive)	> 100 µM (inactive)		> 100 µM (inactive)	> 100 µM (inactive)	> 100 µM (inactive)	> 100 µM (inactive)	> 100 µM (inactive)	> 100 µM (inactive)	> 100 µM (inactive)	> 100 µM (inactive)	> 100 µM (inactive)	> 100 µM (inactive)	> 100 µM (inactive)	> 100 µM (inactive)	> 100 µM (inactive)
O=C1NC(=S)N(c2ccccc2)C1=O	> 100 µM (inactive)	> 100 µM (inactive)	> 100 µM (inactive)	> 100 µM (inactive)	> 100 µM (inactive)	> 100 µM (inactive)	> 100 µM (inactive)	> 100 µM (inactive)	> 100 µM (inactive)	> 100 µM (inactive)	> 100 µM (inactive)	> 100 µM (inactive)	> 100 µM (inactive)	> 100 µM (inactive)	> 100 µM (inactive)	> 100 µM (inactive)	> 100 µM (inactive)			
CN1N(c2ccccc2)C(=O)C2=NC=C(C#N)C(=N)C21C (stereo unspecified)	> 100 µM (inactive)	> 100 µM (inactive)	> 100 µM (inactive)	> 100 µM (inactive)	> 100 µM (inactive)			> 100 µM (inactive)	97.7 µM (inactive)	> 100 µM (inactive)	> 100 µM (inactive)	> 100 µM (inactive)	> 100 µM (inactive)	> 100 µM (inactive)	> 100 µM (inactive)	> 100 µM (inactive)	> 100 µM (inactive)	> 100 µM (inactive)	> 100 µM (inactive)	> 100 µM (inactive)
Cc1ncc([N+](=O)[O-])n1CCNC(=O)CCCCCn1ccnc1[N+](=O)[O-]	> 100 µM (inactive)		> 100 µM (inactive)	> 100 µM (inactive)	> 100 µM (inactive)	> 100 µM (inactive)	> 100 µM (inactive)	> 100 µM (inactive)	> 100 µM (inactive)	> 100 µM (inactive)	> 100 µM (inactive)	> 100 µM (inactive)		> 100 µM (inactive)	> 100 µM (inactive)	> 100 µM (inactive)		> 100 µM (inactive)	> 100 µM (inactive)	> 100 µM (inactive)
